What all share (assay): inhibition of tumour cell growth, NCI panel, 48 h
The subject of assay [1] is HCT-15 colon.
The subject of assay [2] is HOP-92 NSCLC.
The test system of assay [3] is UACC-257 melanoma.
Assay [4] has as its system SF-295 CNS.
Assay [5] deals with UACC-62 melanoma.
For assay [6], the system named is SW-620 colon.
The test system of assay [7] is A549 NSCLC.
Assay [8] has as its system HCT-116 colon.
The subject of assay [9] is A498 renal.
For assay [10], the system named is BT-549 breast.

This is an account of results in PubChem BioAssay (NCI).

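These data come from cells grown in 96-well plates and exposed to compound for 48 hours at five concentrations. Abbreviation: GI50, concentration required for 50% inhibition of growth. Definition used: TGI = concentration required for complete inhibition of growth.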 Some results are limits rather than exact numbers.

Turning to `CCOC(=O)c1csc(NC(=O)CCN2CCCC2)n1`, the TGI in assay [1], in assay [2], in assay [3], in assay [4], in assay [5] and in [6] was over 100 µM in each case. Also, the TGI in assay [7] was over 100 µM.
For the compound `COc1ccc(C(=O)/C=C/SC(=NC#N)SC)cc1`, the TGI is 28.8 µM in [1]; 28.1 µM in assay [8]; over 100 µM in [2]; 40.5 µM in assay [3]; 60.7 µM in assay [9]; 76 µM in [4]. In addition, the TGI is 43.8 µM in assay [5], 48.3 µM in assay [6] and over 100 µM in assay [7].
Take `Cc1cccc2c1CC(Cc1ccccc1C(=O)O)C2=O` (stereo not drawn): the TGI in assay [1], in [8], in assay [2], in assay [3], in assay [10] and in assay [4] was over 100 µM each time. The TGI in assay [5], in assay [6] and in assay [7] was over 100 µM throughout.
Consider `CN(C)CCCNC(=O)N/N=C/c1ccccc1`, for which the TGI in assay [1], in assay [8], in assay [3], in [9], in assay [4] and in assay [5] was over 100 µM throughout. Further, the TGI in [6] and in assay [7] was over 100 µM throughout.
In the case of `CCOC(=O)[C@@H](Cc1ccc(CCl)cc1)NC(C)=O`, the TGI was 94.1 µM in [1]; over 100 µM in assay [8]; 43.6 µM in assay [2]; 40.2 µM in assay [3]; over 100 µM in [10]; over 100 µM in assay [4]. Also, the values for the TGI in [5], in assay [6] and in assay [7] were 31.5 µM, over 100 µM and over 100 µM, respectively.
Take `CC[C@]12C=CCN3CCC4(c5cc([C@@]6(C(=O)OC)CC7CN(CCc8c6[nH]c6ccccc86)CC6CCCCC67)c(OC)cc5N(C)C4[C@](O)(C(=O)OC)C1OC(C)=O)[C@@H]32` (stereo partly drawn): the GI50 in [1] was 0.693 µM. The TGI amounted to 20.1 µM in assay [1]; 0.0631 µM in [8]; 1.5 µM in assay [2]; 18.8 µM in assay [3]; 0.576 µM in [9]; 15.1 µM in assay [4]. Besides, the TGI in [5] is 1.7 µM; in assay [6] it was 15.6 µM; in [7] it was 12.6 µM.
With `CCOC(=O)c1csc(NC(=O)CCN2CCN(C)CC2)n1`, the TGI in assay [1], in assay [2], in [3], in assay [9], in assay [4] and in assay [5] was over 100 µM in each case. Moreover, the TGI in assay [6] and in assay [7] was over 100 µM each time.
As to `CC(C)=C/C(CC(O)(C(F)(F)F)C(F)(F)F)=N\O`, the TGI in [1], in assay [8], in assay [2], in [3], in assay [9] and in [4] was over 100 µM in each case. Further, the TGI in [5], in assay [6] and in [7] was over 100 µM in each case.
Consider `C/C(=C\CSCC(N)C(=O)O)CC/C=C(\C)CNc1ccccc1` (stereo not drawn), for which the TGI in assay [1], in [8], in assay [3], in [10], in assay [4] and in assay [5] was over 100 µM each time. In addition, the TGI in [6] and in [7] was over 100 µM each time.
On to `CCOC(=O)c1c(SCc2cc(=O)[nH]c(=O)[nH]2)n(-c2ccccc2)c(=S)n(-c2ccccc2)c1=O`, for which the TGI in [1], in assay [8], in assay [3], in assay [9], in assay [10] and in assay [5] was over 100 µM throughout. The TGI in [6] and in assay [7] was over 100 µM in each case.
With `O=C1c2cc3c(cc2CC12Cc1ccc4c(c1C2=O)CCC4)CCC3` (stereo not drawn), the TGI in [1], in [8], in assay [2], in assay [3], in assay [9] and in assay [4] was over 100 µM in each case. Further, the TGI in [6] and in assay [7] was over 100 µM in each case.
Turning to `Cc1cc(S(=O)(=O)N=C2Nc3cccc4cccc(c34)N2)c(S)cc1Cl`, the TGI in assay [1] is over 100 µM; in assay [8] it was 83.8 µM; in assay [2], over 100 µM; in assay [3], over 100 µM; in assay [10] it was over 100 µM; in assay [4] it was over 100 µM. In addition, the TGI in [5], in assay [6] and in assay [7] was over 100 µM in each case.
As to `CCOC(=O)/C=C/CCC(C)(C)COC(C)=O`, the TGI in [1], in assay [8], in [2], in assay [3], in assay [4] and in assay [5] was over 10 µM in each case. Further, the TGI in [6] and in [7] was over 10 µM throughout.
As for `CC[C@H](NC(=O)OC(C)(C)C)C(=O)NCP(=O)(OCc1ccc([N+](=O)[O-])cc1)OCc1ccc([N+](=O)[O-])cc1`, the TGI in assay [1] is over 100 µM; in assay [8], over 100 µM; in assay [2] it was over 100 µM; in [3] it was 26.9 µM; in assay [10], over 100 µM; in assay [4], 55.7 µM. Further, the TGI in assay [5] is 51.9 µM; in assay [6] it was over 100 µM; in assay [7] it was over 100 µM.
For `CCn1ncc2c(=O)n3ncn(-c4ccc(Br)cc4)c3nc21`, the TGI in assay [1], in assay [8], in assay [3], in [9], in [10] and in [4] was over 100 µM in each case. In addition, the TGI in assay [5], in assay [6] and in assay [7] was over 100 µM throughout.
